Experimental data published in publication PMC13379236 (Cell reports, 2026).
Entries after “also recorded” stand apart in the source; their conditions may differ.

Experiments:
ZYG11B [1] = format: cell-based, human
NLRP1 inflammasome = format: cell-based, human
innate immune response = details: cited from earlier work
ZYG11B [2] = details: cited from earlier work

**Q.** With “ORF10: SARS-CoV-2 protein ORF10, overexpressed” as the substance, how does the “ORF10 binding to ZYG11B E644K” value (ZYG11B [1]) read?
**A.** decrease the binding

**Q.** And the “ORF10 binding to ZYG11B K515E” value (ZYG11B [1])?
**A.** substantially enhance binding

**Q.** What about the “ORF10 binding to ZYG11B R466A” value (ZYG11B [1]) of the same substance?
**A.** minimal effect; also recorded: did not strongly affect ORF10 binding

**Q.** And the “effect of ORF10 on inflammasome activation with NLRP1 E133K” value (NLRP1 inflammasome)?
**A.** no decrease in inflammasome activation

**Q.** And the “inhibition of HRV 3Cpro-mediated activation of wild-type NLRP1” value (NLRP1 inflammasome)?
**A.** could inhibit HRV 3Cpro-mediated activation of NLRP1

**Q.** And the “effect on innate immune response” value (innate immune response)?
**A.** can suppress the innate immune response

**Q.** What about the “interaction with ZYG11B” value (ZYG11B [2]) of the same substance?
**A.** interacts with ZYG11B
